Source: US20040043084A1, “Method of enhancing biological activity of plant extracts” (priority 2002, published 2004)

What was measured:
[1] = test system: UV induced peroxidation of lipids; assay: inhibition of UV induced peroxidation of lipids (liposomal assay, Pelle et al.); assay type: biochemical
Source text: Caffeine was subjected to bioconversion at concentration as indicated(w/v) in water or in a mixture of structured waters (I/S 60/40).
P. ulei is an equatorial plant known to have anti-inflammatory properties. A. purchyriminor is an equatorial plant containing inhibitors of PAF (Platelet Activating Factor). […] The untreated extracts at a concentration 1% each, are combined and diluted to 0.1% each and subjected to bioconversion.

[2] = test system: skin; assay: Skin exfoliation via D-Squame discs and image analysis; assay type: in vivo, human; details: tested previously in a base, activity over the placebo, 1.0% active in formula
Source text: The subjects included in this study were 120 females between the ages of 21 and 65 years, all meeting the screening criteria of good health and not being pregnant or lactating. The subjects reported for testing without moisturizers or any other products on their hands and baseline measurements were taken. They were randomly assigned to one of the following eight treatment groups. They were given the product to take home and self-administer to their right hand only, twice a day in the morning after washing and in the evening at least 15 minutes before bedtime for four weeks. The left hand served as the untreated control site. The subjects were only allowed to use the test product and specifically log its use in a daily diary provided. At the end of two and four weeks the subjects returned for testing without applying the product for at least 12 hours and they were re-evaluated under the same conditions. Skin Exfoliation via D-Squame Discs Method and Image Analysis Four D-Squame discs were firmly and evenly pressed on the face and the back of each hand with a hand held uniform pressure device and removed by gently pulling away from the skin. The D-Squame discs were mounted on clear microscope slides and labeled according to panelist name and visit. Desquamation was evaluated from the D-Squame discs via the image analyzer. Skin evaluation was carried out before treatment, and after two and four weeks of treatment. The OPTIMA image analyzer was used to evaluate skin flakiness. The D-Squame samples containing the stratum corneocytes are placed under a camera on top of a light table and each image is imported into the image analyzer. The average Gray Value corresponding to the sample density is measured. The denser the sample the higher the Gray value difference. Skin exfoliation was evaluated by measuring the amount of flakes removed from the skin surface using D-Squame discs and analyzing them via the IA method. In this study several ferment combinations of N-Acetyl D-Glucosamine and Mannose 6-Phosphate vs. the placebo, the broth and the ferment as controls, for their effect on skin desquamation. […] Another series of tests were conducted as described above. The concentration of N-acetyl D-glucosamine and mannose 6-phosphate was reduced by 10 fold without compromising their activity. Table 4 below summarizes the actual active concentrations used with a brief description along with their activity.

| SMILES | Inhibition of lipid peroxidation ([1]; Caffeine Concentration 0.05%) [%] | Inhibition of lipid peroxidation ([1]; Caffeine Concentration 0.25%) [%] | Inhibition of lipid peroxidation ([1]; Caffeine Concentration 0.5%) [%] | Decrease in Flakiness 2 wk [2] [%] | Decrease in Flakiness 4 wk [2] [%] | also measured |
| --- | --- | --- | --- | --- | --- | --- |
| Cn1c(=O)c2c(ncn2C)n(C)c1=O [Caffeine Non bioconverted I/S water, Caffeine] | 24 | 58 | 66 | – | – | – |
| CC(=O)N[C@H]1C(O)O[C@H](CO)[C@@H](O)[C@@H]1O (stereo partly shown) [1% N-Acetyl Glucosamine, N-Acetyl Glucosamine] | – | – | – | 16 | 27 | – |
| Oc1ccc(C=Cc2cc(O)cc(O)c2)cc1 [Resveratrol Nonbioconverted, Resveratrol] | – | – | – | – | – | Anti-oxidant activity ([1]; Concentration of Resveratrol in S water 0.05%): 1.8%; Anti-oxidant activity ([1]; Concentration of Resveratrol in S water 0.25%): 8%; Anti-oxidant activity ([1]; Concentration of Resveratrol in S water 0.5%): 39% |
| O=C[C@@H](O)[C@@H](O)[C@H](O)[C@H](O)COP(=O)(O)O [1% Mannose 6-Phosphate, Mannose 6-Phosphate] | – | – | – | 22 | 29 | – |
| Cn1c(=O)c2c(ncn2C)n(C)c1=O [Caffeine Non bioconverted H2O, Caffeine] | 30 | 54 | 66 | – | – | – |
